Values joined by “and” are separate entries in the source; they are usually repeats but may differ in a detail not shown here. Equal entries are not always repeated. Where two headings read alike, the source gives them in different places. Where a SMILES comes first, the peptide text is derived from it. Side-chain parts run from the residue outwards. [ ]: non-standard residue; d: D form. The star is where a group is joined. Pentanoyl(4-Me) = CC(C)CCC(=O)*; Octanoyl = CCCCCCCC(=O)*; Hexanoyl = CCCCCC(=O)*
How the values were obtained:
[1] = test system: Pseudomonas syringae pv. syringae EPS94; assay type: cell-based; conditions: 48 h
Experimental: (§1) The following plant pathogenic bacterial strains were used: Erwinia amylovora PMV6076 (Institut National de la Recherche Agronomique, Angers, France), Pseudomonas syringae pv. syringae EPS94 (Institut de Tecnologia Agroalimentària, Universitat de Girona, Spain) and Xanthomonas axonopodis pv. vesicatoria 2133–2 (Instituto Valenciano de Investigaciones Agrarias, Valencia, Spain). All bacteria were stored in Luria Bertani (LB) broth supplemented with glycerol (20%) and maintained at -80°C. Bacteria were scrapped from LB agar after growing for 24–48 h at 25°C. The cell material was suspended in sterile water to obtain a suspension of 10^8 CFU mL^-1.
(§2) Lyophilized peptides were solubilized in sterile Milli-Q water to a final concentration of 1 mM and filter sterilized through a 0.22-μm pore filter. For minimum inhibitory concentration (MIC) assessment, dilutions of the compounds were made to obtain a stock concentration of […]. For antibacterial activity twenty microlitres of each dilution were mixed in a microtiter plate well with 20 μL of the corresponding suspension of the bacterial indicator, 160 μL of Trypticase Soy Broth (TSB) (BioMèrieux, France) to a total volume of 200 μL. For antifungal activity 20 μL of each stock solution were mixed in a microtiter plate well with 80 μL of the corresponding suspension of the fungal pathogen and 100 μL of double concentrated PDB to a total volume of 200 μL containing 0.003% w/v of choramphenicol.
(§3) Three replicates for each strain, compound and concentration were used. Microbial growth was determined by optical density measurement at 600 nm (Bioscreen C, Labsystem, Helsinki, Finland). For antibacterial activity microplates were incubated at 25°C with 20 sec shaking before hourly absorbance measurement for 48 h. For antifungal activity microplates were incubated at 20°C with 1 min shaking before absorbance measurement that were done every two hours during seven days. The experiment was repeated twice. The MIC was taken as the lowest compound concentration with no growth at the end of the experiment.

[2] = test system: Xanthomonas axonopodis pv. vesicatoria 2133–2; assay type: cell-based; conditions: TSB, 25°C, 48 h, OD 600 nm; tested at 3.1, 6.2, 12.5, 25, 50 μM; three replicates, experiment repeated twice; MIC = lowest concentration with no growth
Experimental: as §1, §2, §3

[3] = test system: Erwinia amylovora PMV6076; experiment: MIC, in vitro growth inhibition; assay type: cell-based; conditions: TSB, 25°C, 48 h, OD 600 nm; tested at 3.1, 6.2, 12.5, 25, 50 μM; three replicates, experiment repeated twice; MIC = lowest concentration with no growth
Experimental: as §1, §2, §3

[4] = test system: Fusarium oxysporum f. sp. lycopersici FOL 3 race 2; experiment: MIC, antifungal growth inhibition; assay type: cell-based
Experimental: Fusarium oxysporum f. sp. lycopersici FOL 3 race 2 (ATCC 201829, American Type Culture Collection) was used as fungal pathogen. The strain was cultured on potato dextrose agar (PDA) plates (Difco) and microconidia were obtained after growth at 25°C. The concentration of conidia was determined using a hemacytometer and adjusted to 10^4 conidia mL^-1.
as §2, §3

[5] = test system: erythrocyte suspensions of horse blood; conditions: horse erythrocytes 5% vol/vol, TRIS buffer pH 7.2, 1 h at 37°C, absorbance 540 nm, relative to melittin 100 μM, ± confidence interval (α = 0.05); for Hemolysis (%) 150 µM: 150 µM peptide; for Hemolysis (%) 250 µM: 250 µM peptide;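 on all read-outs here: Read-out is hemoglobin release into the supernatant, with a buffer-only blank subtracted as the 0% baseline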
[6] = PDB with 0.003% chloramphenicol, 20°C, seven days, OD 600 nm, tested at 3.1, 6.2, 12.5, 25, 50 μM, three replicates, repeated twice

Compound	MIC Pss [1] [µM]	MIC Xav [2]	MIC Ea [3] [µM]	MIC Fo [4, 6] [µM]	Hemolysis (%) 150 µM [5] [%]	Hemolysis (%) 250 µM [5] [%]	MIC Fo [4] [µM]
CCCCCC(=O)NCCCC[C@H]1NC(=O)[C@H](CCCCN)NC(=O)[C@H](CC(C)C)NC(=O)[C@H](CCCCN)NC(=O)[C@H](CCCCN)NC(=O)[C@H](CCC(N)=O)NC(=O)[C@H](CC(C)C)NC(=O)[C@H](CCCCN)NC(=O)[C@H](CCCCN)NC(=O)[C@H](Cc2ccccc2)NC1=O [BPC628, c(KKLKk(CO-nC5H11)FKKLQ)] (cyclo(FKKLQKKLK[dK](Hexanoyl)))	12.5 to 25	6.2 to 12.5 µM	25 to 50	6.2 to 12.5	19 ± 2	34 ± 3	–
CC(C)CCC(=O)NCCCC[C@H]1NC(=O)[C@H](CCCCN)NC(=O)[C@H](CC(C)C)NC(=O)[C@H](CCCCN)NC(=O)[C@H](CCCCN)NC(=O)[C@H](CCC(N)=O)NC(=O)[C@H](CC(C)C)NC(=O)[C@H](CCCCN)NC(=O)[C@H](CCCCN)NC(=O)[C@H](Cc2ccccc2)NC1=O [BPC630, c(KKLKk(CO-isoC5H11)FKKLQ)] (cyclo(FKKLQKKLK[dK](Pentanoyl(4-Me))))	6.2 to 12.5	6.2 to 12.5 µM	25 to 50	6.2 to 12.5	22 ± 2	28 ± 3	–
CCCCCC(=O)NCCCC[C@@H]1NC(=O)[C@H](CCCCN)NC(=O)[C@H](CC(C)C)NC(=O)[C@H](CCCCN)NC(=O)[C@H](CCCCN)NC(=O)[C@H](CCC(N)=O)NC(=O)[C@H](CC(C)C)NC(=O)[C@H](CCCCN)NC(=O)[C@H](CCCCN)NC(=O)[C@H](Cc2c[nH]cn2)NC1=O [BPC636, c(KKLKK(CO-nC5H11)HKKLQ)] (cyclo(HKKLQKKLKK(Hexanoyl)))	6.2 to 12.5	12.5 to 25 µM	25 to 50	6.2 to 12.5	5 ± 2	16 ± 5	–
CC(C)CCC(=O)NCCCC[C@@H]1NC(=O)[C@H](CCCCN)NC(=O)[C@H](CC(C)C)NC(=O)[C@H](CCCCN)NC(=O)[C@H](CCCCN)NC(=O)[C@H](CCC(N)=O)NC(=O)[C@H](CC(C)C)NC(=O)[C@H](CCCCN)NC(=O)[C@H](CCCCN)NC(=O)[C@H](Cc2c[nH]cn2)NC1=O [BPC638, c(KKLKK(CO-isoC5H11)HKKLQ)] (cyclo(HKKLQKKLKK(Pentanoyl(4-Me))))	6.2 to 12.5	25 to 50 µM	25 to 50	6.2 to 12.5	6 ± 2	8 ± 5	–
CCCCCCCC(=O)NCCCC[C@H]1NC(=O)[C@H](CCCCN)NC(=O)[C@H](CC(C)C)NC(=O)[C@H](CCCCN)NC(=O)[C@H](CCCCN)NC(=O)[C@H](CCC(N)=O)NC(=O)[C@H](CC(C)C)NC(=O)[C@H](CCCCN)NC(=O)[C@H](CCCCN)NC(=O)[C@H](Cc2ccccc2)NC1=O [BPC666, c(KKLKk(CO-C7H15)FKKLQ)] (cyclo(FKKLQKKLK[dK](Octanoyl)))	12.5 to 25	12.5 to 25 µM	25 to 50	6.2 to 12.5	61 ± 2	73 ± 3	–
CCCCCCCC(=O)NCCCC[C@@H]1NC(=O)[C@H](CCCCN)NC(=O)[C@H](CC(C)C)NC(=O)[C@H](CCCCN)NC(=O)[C@H](CCCCN)NC(=O)[C@H](CCC(N)=O)NC(=O)[C@H](CC(C)C)NC(=O)[C@H](CCCCN)NC(=O)[C@H](CCCCN)NC(=O)[C@@H](Cc2ccccc2)NC1=O [BPC668, c(KKLKK(CO-C7H15)fKKLQ)] (cyclo(KKLKK(Octanoyl)[dF]KKLQ))	12.5 to 25	6.2 to 12.5 µM	25 to 50	6.2 to 12.5	79 ± 2	79 ± 1	–
CCCCCCCC(=O)NCCCC[C@@H]1NC(=O)[C@H](CCCCN)NC(=O)[C@H](CC(C)C)NC(=O)[C@H](CCCCN)NC(=O)[C@H](CCCCN)NC(=O)[C@H](CCC(N)=O)NC(=O)[C@H](CC(C)C)NC(=O)[C@H](CCCCN)NC(=O)[C@H](CCCCN)NC(=O)[C@H](Cc2c[nH]cn2)NC1=O [BPC670, c(KKLKK(CO-C7H15)HKKLQ)] (cyclo(HKKLQKKLKK(Octanoyl)))	12.5 to 25	12.5 to 25 µM	25 to 50	3.1 to 6.2	34 ± 1	40 ± 1	–
CCCCCC(=O)N[C@@H](CCCCN)C(=O)N[C@@H](CC(C)C)C(=O)NCCCC[C@H]1NC(=O)[C@H](CCCCN)NC(=O)[C@H](CC(C)C)NC(=O)[C@H](CCCCN)NC(=O)[C@H](CCCCN)NC(=O)[C@H](CCC(N)=O)NC(=O)[C@H](CC(C)C)NC(=O)[C@H](CCCCN)NC(=O)[C@H](CCCCN)NC(=O)[C@H](Cc2ccccc2)NC1=O [BPC672, c(KKLKk(LK-CO-nC5H11)FKKLQ)] (cyclo(FKKLQKKLK[dK]([Leu-Lys-Hexanoyl])))	6.2 to 12.5	3.1 to 12.5 µM and 6.2 to 12.5 µM	25 to 50	3.1 to 6.2	33 ± 2	33 ± 2	3.1 to 6.2
CCCCCC(=O)N[C@@H](CCCCN)C(=O)N[C@@H](CC(C)C)C(=O)NCCCC[C@@H]1NC(=O)[C@H](CCCCN)NC(=O)[C@H](CC(C)C)NC(=O)[C@H](CCCCN)NC(=O)[C@H](CCCCN)NC(=O)[C@H](CCC(N)=O)NC(=O)[C@H](CC(C)C)NC(=O)[C@H](CCCCN)NC(=O)[C@H](CCCCN)NC(=O)[C@@H](Cc2ccccc2)NC1=O [BPC674, c(KKLKK(LK-CO-nC5H11)fKKLQ)] (cyclo(KKLKK([Leu-Lys-Hexanoyl])[dF]KKLQ))	6.2 to 12.5	3.1 to 12.5 µM and 6.2 to 12.5 µM	25 to 50	3.1 to 6.2	51 ± 2	56 ± 2	3.1 to 6.2
CCCCCC(=O)NCCCC[C@H]1NC(=O)[C@H](CCCCN)NC(=O)[C@H](CCC(N)=O)NC(=O)[C@H](CC(C)C)NC(=O)[C@H](CCCCN)NC(=O)[C@H](CCCCN)NC(=O)[C@H](Cc2ccccc2)NC(=O)[C@H](CCCCN)NC(=O)[C@H](CCCCN)NC(=O)[C@H](CC(C)C)NC1=O [BPC678] (cyclo(FKKLQK[dK](Hexanoyl)LKK))	12.5 to 25	6.2 to 12.5 µM	25 to 50	3.1 to 6.2	68 ± 3	73 ± 4	–
CCCCCC(=O)NCCCC[C@@H]1NC(=O)[C@H](CCCCN)NC(=O)[C@H](CCC(N)=O)NC(=O)[C@H](CC(C)C)NC(=O)[C@H](CCCCN)NC(=O)[C@H](CCCCN)NC(=O)[C@@H](Cc2ccccc2)NC(=O)[C@H](CCCCN)NC(=O)[C@H](CCCCN)NC(=O)[C@H](CC(C)C)NC1=O [BPC680, c(KK(CO-nC5H11)LKKfKKLQ)] (cyclo(KK(Hexanoyl)LKK[dF]KKLQ))	25 to 50	12.5 to 25 µM	25 to 50	3.1 to 6.2	77 ± 2	81 ± 4	–

Source: publication PMC4805166, “Synthetic Cyclolipopeptides Selective against Microbial, Plant and Animal Cell Targets by Incorporation of D-Amino Acids or Histidine” (PLoS ONE, 2016)
